Literature values, collected in patent US20100135983A1, “Anti-inflammatory compositions and methods” (Searete LLC, a limited liability corporation of the State …, priority 2008, published 2010).

Assays:
proteasome = conditions: cultured breast cancer cells; disulfiram bound to copper
[1] = single agent, infused at 400 mg over one hour
lethal septic shock = conditions: mice
[2] = test system: Src family kinases (Src, Lck, Yes, Fyn); conditions: at nanomolar concentrations
Epha1 = conditions: at nanomolar concentrations
Src family kinase = conditions: also its dependent cellular responses

## CCN(CC)C(=S)SSC(=S)N(CC)CC [disulfiram, 1-(diethylthiocarbamoyldisulfanyl)-N,N-diethyl-methanethioamide]
proteasome
  proteasomal activity: inhibits proteasomal activity

## CCN(CC)CCCC(C)Nc1ccnc2cc(Cl)ccc12.O=P(O)(O)O.O=P(O)(O)O (stereo not drawn) [chloroquine phosphate, 7-chloro-4-[[4-(diethylamino)-1-methylbutyl]amino]quinoline phosphate (1:2)]
[1]
  tolerability of intravenous infusion: without complication

## Cl.Cl.Nc1ccccc1Oc1ccc2c(N)nsc2c1 [Example M62812, 3-amino-6-(2-aminophenoxy)-1,2-benzisothiazole dihydrochloride]
Lethal septic shock
  prevention of lethal septic shock: prevents lethal septic shock

## Cc1nc(Nc2ncc(C(=O)Nc3c(C)cccc3Cl)s2)cc(N2CCN(CCO)CC2)n1.O [dasatinib, N-(2-chloro-6-methylphenyl)-2-[[6-[4-(2-hydroxyethyl)-1-piperazinyl]-2-methyl-4-pyrimidinyl]amino]-5-thiazolecarboxamide, monohydrate]
[2]
  inhibition of Src family kinases (Src, Lck, Yes, Fyn): inhibits
Epha1
  inhibition of Epha1: inhibits

## CCN(CC)CCCC(C)Nc1ccnc2cc(Cl)ccc12 (stereo not drawn) [Chloroquine]
Src family kinase
  inhibition of CpG-induced Src family kinase activation: does not inhibit
